Experimental data as given in patent US12263166B2, “Methods of treating cancers having a BRCA1 and/or BRCA2 mutation(s)” (Dana-Farber Cancer Institute, Inc., priority 2017, dated 2025).

Key:
[1] = target: T1, full-length USP1 / forked DNA (Homo sapiens, UniProt O94782); test: Electromobility shift assay of USP1 with forked DNA; assay type: binding; settings: 0-300 nM USP1, 0-1000 nM ML323, forked DNA
T1 construct: purchased Boston Biochem / R&D systems E564
T1 sequence (O94782 1-785): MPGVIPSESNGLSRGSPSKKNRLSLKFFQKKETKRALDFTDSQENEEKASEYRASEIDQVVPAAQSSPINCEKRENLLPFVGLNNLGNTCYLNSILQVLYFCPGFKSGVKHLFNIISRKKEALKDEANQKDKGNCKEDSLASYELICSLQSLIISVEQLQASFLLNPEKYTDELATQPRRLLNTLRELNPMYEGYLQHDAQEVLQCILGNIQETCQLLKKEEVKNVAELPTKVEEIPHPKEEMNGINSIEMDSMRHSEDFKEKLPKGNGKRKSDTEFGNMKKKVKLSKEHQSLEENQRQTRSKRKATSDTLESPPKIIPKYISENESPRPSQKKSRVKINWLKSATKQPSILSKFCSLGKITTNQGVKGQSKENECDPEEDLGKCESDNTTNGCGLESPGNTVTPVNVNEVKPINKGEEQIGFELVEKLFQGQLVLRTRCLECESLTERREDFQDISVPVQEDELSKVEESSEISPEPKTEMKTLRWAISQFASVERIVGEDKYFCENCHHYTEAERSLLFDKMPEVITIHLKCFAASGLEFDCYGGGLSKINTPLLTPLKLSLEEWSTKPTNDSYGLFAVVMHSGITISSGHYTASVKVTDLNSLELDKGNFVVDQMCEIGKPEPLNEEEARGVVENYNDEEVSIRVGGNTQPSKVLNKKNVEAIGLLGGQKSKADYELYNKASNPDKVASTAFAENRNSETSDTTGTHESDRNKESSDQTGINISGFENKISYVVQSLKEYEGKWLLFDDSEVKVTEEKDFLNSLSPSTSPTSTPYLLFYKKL
Experimental: FIG. 11C. Electromobility shift assay of 0-300 nM of USP1 incubated with 0-1000 nM of ML323 and forked DNA.
Recombinant USP1 and UAF1 proteins from R&D systems (E564, E566) were used for some electromobility shift assays and in vitro deubiquitination assays. Electromobility shift assays were performed by pre-incubating fluorophore (Cy3)-tagged DNA and purified protein in binding buffer (20 mM Hepes (pH 7.6), 0.1M KCl, 5 mM MgCl2, 3% (v/v) glycerol, 0.25 mg/ml BSA, 0.05 mM EDTA, 0.5 mM DTT, 0.01% (v/v) NP-40) for 30 min on ice. Samples were then loaded onto 6% polyacrylamide gels and ran at 65V in 0.5× TBE for 135 min at 4° C. Gels were visualized using the LAS-4000 imaging system (GE Healthcare Life Sciences, Pittsburgh, PA). DNA used for Ub-AMC, Ub-CHOP2 and electromobility shift assay were 40 bp in length and were designed to have minimal potential of secondary structure formation.

[2] = test system: UWB1.289 (BRCA1-mutant ovarian cancer cell line); test: Colony formation (sensitivity) assay in UWB1.289; assay type: cell-based; settings: BRCA1-mutant UWB1.289, compared to UWB1.289+BRCA1
Experimental: (§1) Cells were transfected with siRNA or plasmid 18-24 h before being plated for colony formation assays. Cells were counted and plated in triplicates in 6-well plates. For treatment with ML323, plated cells were allowed to adhere overnight before treatment with ML323 the next day. At the end of the experiment, cells were fixed with methanol for 10 min at −20° C. then stained with crystal violet. Quantification of cell growth area was performed with ImageJ.

FANCD2-Ub = settings: cited from earlier work
[3] = target: T2, wild-type, full-length USP1 (Homo sapiens, UniProt O94782); test: Ub-CHOP2 deubiquitination assay, WT-USP1; assay type: biochemical
T2 construct: purchased Boston Biochem / R&D systems E564
T2 sequence (O94782 1-785): T1 sequence (O94782 1-785)
Experimental: (§2) FIG. 11B. Ub-CHOP2 assay of WT-USP1 and Trunc-USP1 with and without USP1 inhibitor ML323.
(§3) Preparation of recombinant USP1 and UAF1 wild type and mutant proteins in SF9 cells and Ub-AMC assays were performed by the method as described in Cohn M A, Kowal P, et al. A UAF1-containing multisubunit protein complex regulates the Fanconi anemia pathway. Molecular cell. 2007; 28(5):786-97. Ub-CHOP2 assays (Life Sensors, Malvern, PA, PR1101) were performed according to manufacturer's instructions. Ub-AMC assays were performed by the methods as described in Cohn M A et al., UAF1 is a subunit of multiple deubiquitinating enzyme complexes. The Journal of biological chemistry. 2009; 284(8):5343-51; Cohn M A, et al. A UAF1-containing multisubunit protein complex regulates the Fanconi anemia pathway. Molecular cell. 2007; 28(5):786-97; Kee Y, et al., WDR20 regulates activity of the USP12 UAF1 deubiquitinating enzyme complex. Journal of Biological Chemistry. 2010; 285(15):11252-7; and Mistry H, Hsieh G, et al. Small-molecule inhibitors of USP1 target ID1 degradation in leukemic cells. Molecular cancer therapeutics. 2013; 12(12):2651-62.

[4] = test system: BRCA1-deficient UWB1.289 cells; test: Colony assay, ML323 combined with Olaparib in UWB1.289; assay type: cell-based; settings: 0 nM or 25 nM Olaparib and increasing doses of ML323
Experimental: FIG. 14. USP1 inhibition is non-epistatic with PARP inhibitors in BRCA1 deficient cells (Top: BRCA1-deficient UWB1.289 cells treated with 0 nM or 25 nM of Olaparib and increasing doses of USP1 inhibitor ML323. Bottom: Representative pictures of UWB1.289 colonies).
as §1

[5] = test system: PARP inhibitor resistant BRCA1-deficient cells (53BP1 silencing); test: Sensitivity of PARP inhibitor resistant cells with restored HR (53BP1 silencing); assay type: cell-based
USP1 = target: T3, USP1 (Homo sapiens, UniProt O94782); test: Western blot of USP1 with and without ML323; assay type: cell-based
T3 construct: endogenous in cells
Experimental: FIG. 8F. Western blot of USP1 with and without ML323 treatment. Following inhibition of USP1 deubiquitinating enzyme (DUB) activity, USP1 autocleavage is inhibited, resulting in a more intense top USP1 band. In addition, Ser313 phosphorylation is induced, resulting in a higher MW band in the blot.
Cells were lysed with lysis buffer (300 mM NaCl, 50 mM Tris-Cl, 1 mM EDTA, 0.5% NP-40), lysates resolved on denaturing Nupage (Invitrogen, Carlsbad, CA) polyacrylamide gels and transferred onto nitrocellulose membranes. Membranes were blocked with 5% milk in TBST, and probed with primary and secondary antibodies respectively, then detected with chemiluminescence (Western Lightning, Perkin Elmer, Waltham, MA).

[6] = test system: BRCA1 deficient MDA-MB-436 cells; test: Replication combing (fiber) assay in MDA-MB-436 after hydroxyurea; assay type: cell-based; settings: 10 μM ML323 for 24 h; effect not increased with USP1 silencing
Experimental: FIG. 20B. Schematic of the experimental design for the fiber assay, graphical quantification of fiber assay measuring replication fork stability in MDA-MB-436 cells following treatment with either siCtrl or siUSP1, untreated or treated with 10 μM of ML323 for 24 h.
Replication combing assay was performed using the FiberComb machine (Genomic Vision, Bagneux, France). Br iefly, cells were treated with CldU, IdU then HU, with 3 PBS washes between each treatment. Cells were then trypsinized, counted and embedded in low melting point agarose plugs, then treated with proteinase k overnight. Agarose plugs were then washed and digested with agarase. Agarase-treated samples were then poured into FiberComb wells and combed onto silanized coverslips. Coverslips were probed with rat anti-BrdU antibody (clone BU1/75 (ICR1) specific to CldU, Life Technologies, Woburn, MA, #MA1-82088) and mouse anti-BrdU Antibody (specific to IdU, BD Biosciences, Woburn, MA, #347580) and visualized by fluorescence microscopy. Pictures were taken of at least 100 fibers per condition. Fibers were measured with ImageJ and graphed.

USP1-Trunc = test: Ub-CHOP2 deubiquitination assay, Trunc-USP1; assay type: biochemical
Experimental: as §2, §3

[7] = test system: PARP inhibitor resistant UWB1.289 SYR14 cells; test: Clonogenic assay in PARP inhibitor resistant UWB1.289 SYR14; assay type: cell-based
Experimental: FIG. 23A. Quantification of colonies after clonogenic assay of parental BRCA1-deficient UWB1.289 cells and PARP inhibitor resistant UWB1.289 SYR14 cells treated with USP1 inhibitor ML323.
as §1

T3 sequence (Q8TAF3 whole entry partner, one chain of several): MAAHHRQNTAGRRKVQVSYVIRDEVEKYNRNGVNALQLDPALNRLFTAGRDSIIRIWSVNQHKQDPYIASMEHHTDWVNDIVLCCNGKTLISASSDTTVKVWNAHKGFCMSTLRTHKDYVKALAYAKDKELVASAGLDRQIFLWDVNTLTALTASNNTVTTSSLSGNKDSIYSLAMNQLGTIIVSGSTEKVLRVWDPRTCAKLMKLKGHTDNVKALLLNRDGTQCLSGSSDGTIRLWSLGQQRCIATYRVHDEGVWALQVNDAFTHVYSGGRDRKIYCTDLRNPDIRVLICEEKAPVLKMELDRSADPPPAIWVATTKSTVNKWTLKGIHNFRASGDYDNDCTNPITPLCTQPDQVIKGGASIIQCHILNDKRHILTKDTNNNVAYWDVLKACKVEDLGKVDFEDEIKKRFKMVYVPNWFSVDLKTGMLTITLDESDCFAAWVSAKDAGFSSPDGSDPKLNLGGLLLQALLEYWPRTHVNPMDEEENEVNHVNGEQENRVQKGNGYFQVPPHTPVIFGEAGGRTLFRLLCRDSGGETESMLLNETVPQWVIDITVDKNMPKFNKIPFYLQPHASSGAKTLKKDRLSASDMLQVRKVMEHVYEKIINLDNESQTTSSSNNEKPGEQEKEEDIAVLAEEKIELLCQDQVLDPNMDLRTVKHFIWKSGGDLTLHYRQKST

SMILES: Cc1cnc(-c2ccccc2C(C)C)nc1NCc1ccc(-n2ccnn2)cc1 [ML323]
- DNA binding activity of full-length USP1 [1]: does not interfere
- growth of UWB1.289 cells [2]: reduced growth
- FANCD2 deubiquitination (FANCD2-Ub): blocks
- cellular FANCD2-Ub level (FANCD2-Ub): accumulation
- DUB activity of wild-type, full-length USP1 [3]: inhibits
- interaction of USP1 inhibition with PARP inhibitors in BRCA1 deficient cells [4]: non-epistatic
- sensitivity of PARP inhibitor resistant cells resulting from restoration of HR [5]: resistant
- USP1 Ser313 phosphorylation (USP1): induced
- USP1 autocleavage (USP1): inhibited
- fork degradation following hydroxyurea treatment [6]: enhanced fork degradation
- DUB activity of USP1-Trunc (USP1-Trunc): inhibits
- sensitivity of PARP inhibitor resistant cells resulting from fork stabilization [7]: remained sensitive
